We go through 25 molecules from ChEMBL document CHEMBL1201862, “PubChem BioAssay data set” (2004).

Holding throughout (assay): NCI-60 cell line screen, 48 h
The test system of assay [1] is SNB-78.
For assay [2], the system named is M19-MEL.
For assay [3], the system named is KM-20L2.
The subject of assay [4] is HOP-18.
In assay [5] the test system is DMS-273.
Assay [6] relates to XF498.
Assay [7] relates to DLD-1.
Assay [8] has as its system DMS-114.
For assay [9], the system named is RXF 631.

Each structure is given as a SMILES string.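 Test compounds were applied to cells in 96-well plates for 48 hours at 5 doses. At the GI50, growth is halved.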 The source made the active and inactive calls. Rule as the data show it: active = GI50 up to about 1.1 µM and inactive = higher. Where only a bound is given, the exact number is not on record here.

Take `COc1ccc(OC)c2c1C(=O)C(Cl)=C(Cl)C2=O`: the GI50 was 4.61 µM (inactive) in assay [1]; 4.68 µM (inactive) in assay [2]; 10.5 µM (inactive) in assay [3]; 3.54 µM (inactive) in [4]; 7.57 µM (inactive) in assay [5]; 1.61 µM (inactive) in assay [6]. For the same molecule, the GI50 is 3.84 µM (inactive) in assay [7] and 2.16 µM (inactive) in assay [8].

On to `Oc1ncnc2c1sc(=S)n2-c1ccccc1`, for which the GI50 in assay [1], in assay [2], in [3], in assay [5], in assay [6] and in assay [7] was > 100 µM (inactive) throughout. The GI50 in assay [8] was > 100 µM (inactive).

For the molecule `CC(C)Cc1ccc(C(C)CC2=CCC(CN(C)C)C2=O)cc1` (centres undefined), the GI50 in [1] was 6.43 µM (inactive); in assay [2], 4.11 µM (inactive); in assay [3], 11.4 µM (inactive); in assay [4], 18.5 µM (inactive); in assay [5], 4.41 µM (inactive); in assay [9], 16.6 µM (inactive). Further, the GI50 in [7] was 2.33 µM (inactive); in [8] it was 4.27 µM (inactive).

Take `O=C(CCN1CCCCC1)N1CCc2c([nH]c3ccccc23)C1c1cccnc1` (centres undefined): the GI50 in assay [1] was > 86.7 µM (inactive); in assay [2] it was 21.2 µM (inactive); in assay [3], 30.1 µM (inactive); in assay [4], > 100 µM (inactive); in [5], 39.8 µM (inactive); in assay [6] it was 21.2 µM (inactive). In addition, the GI50 in assay [9] is 31 µM (inactive); in [7] it was 48.4 µM (inactive); in assay [8], 27.9 µM (inactive).

With `CC1=C(O)/C(=C/C(C)CCC/C(C)=C/C=C/C(C)CCCc2ccoc2)OC1=O` (centres undefined), the GI50 is 18.3 µM (inactive) in assay [1]; 48.3 µM (inactive) in [2]; 29.6 µM (inactive) in assay [3]; 55.3 µM (inactive) in assay [5]; 7.08 µM (inactive) in assay [6]; 31 µM (inactive) in assay [7]. Further, the GI50 in assay [8] is 49.7 µM (inactive).

In the case of `Cc1ccc(/N=N/c2c(-c3ccccc3)nn(C(=O)CC(=O)Nc3ccc(Cl)cc3)c2-c2ccccc2)cc1`, the GI50 in assay [1] was 79.6 µM (inactive); in assay [3], 63.4 µM (inactive); in assay [4], > 100 µM (inactive); in [5], > 100 µM (inactive); in assay [9] it was 59.4 µM (inactive); in assay [7] it was 83.6 µM (inactive). Moreover, the GI50 in [8] was 44.5 µM (inactive).

On to `CCn1c(SC(C)C(=O)c2c(C)n(C)n(-c3ccccc3)c2=O)nc2ccccc2c1=O` (centres undefined), for which the GI50 in assay [1], in [2], in assay [3], in [5], in [7] and in assay [8] was > 100 µM (inactive) each time.

On to `CC1c2[nH]c3ccccc3c2CCN1O` (centres undefined), for which the GI50 in assay [1], in [2], in assay [3], in assay [4], in [5] and in assay [9] was > 100 µM (inactive) throughout. Moreover, the GI50 in assay [7] and in assay [8] was > 100 µM (inactive) each time.

Consider `CN(C)c1n/c(=N/c2ccc3c(c2)OCO3)ss1`, for which the GI50 in assay [1] is 44 µM (inactive); in assay [2], > 100 µM (inactive); in [3], 39.9 µM (inactive); in assay [4], > 100 µM (inactive); in [5], 66.5 µM (inactive); in assay [6] it was 48.5 µM (inactive). For the same molecule, the figures for the GI50 in [7] and in assay [8] were 79.8 µM (inactive) and 38.6 µM (inactive), respectively.

In the case of `CSc1nc(NC2OCC(OC(C)=O)C(OC(C)=O)C2OC(C)=O)c2c(n1)OCC2=O` (centres undefined), the GI50 in assay [1], in assay [2], in [3], in assay [5], in [7] and in assay [8] was > 100 µM (inactive) each time.

For the molecule `COC(=O)[C@H](C)[C@H]1CC[C@@](C)([C@H]2CC3C(C)(C)[C@H]4CCC(C)=C[C@H]4C[C@@]3(C)O2)OO1` (some centres undefined), the GI50 in assay [1] is 10.8 µM (inactive); in [2] it was 13.2 µM (inactive); in [3], 13.4 µM (inactive); in assay [5], 12.6 µM (inactive); in assay [6], 10 µM (inactive); in assay [7], 12 µM (inactive). Further, in assay [8], the GI50 was 3.58 µM (inactive).

Regarding `NC(=O)C12CCC1C1CCCCC12N1CCOCC1` (centres undefined), the GI50 in assay [1], in assay [2], in assay [3], in assay [4], in [9] and in assay [7] was > 100 µM (inactive) throughout.

As for `COCc1cc2c(s1)C(=O)C1=C(C2=O)C2(C=C(Br)C(=O)C(Br)=C2)CCN1`, the GI50 in assay [1] is 7.59 µM (inactive); in assay [2], 1.46 µM (inactive); in [3], 0.184 µM (active); in assay [4], 15.1 µM (inactive); in assay [5], 2.85 µM (inactive); in [6], 7.41 µM (inactive). The GI50 in [7] is 6.95 µM (inactive); in [8], 1.73 µM (inactive).

`C/C(=N\NC(=S)NNC(=S)N(C)c1ccccc1)c1ccccn1`: the GI50 in assay [1] was 8.55 µM (inactive); in [2], 0.547 µM (active); in [4] it was 0.198 µM (active); in [5], 1.46 µM (inactive); in [6], 14.1 µM (inactive); in assay [7], 0.618 µM (active). In addition, the GI50 in assay [8] was 0.399 µM (active).

As for `COC(=O)C1Cc2c(n(C)c3ccccc23)C(c2ccccc2)N1` (centres undefined), the GI50 is > 100 µM (inactive) in assay [1]; 45.6 µM (inactive) in assay [2]; 57.8 µM (inactive) in [3]; > 100 µM (inactive) in assay [4]; 38.8 µM (inactive) in assay [5]; > 100 µM (inactive) in assay [9]. Besides, the results for the GI50 in assay [7] and in assay [8] were > 10 µM (inactive) and 21.8 µM (inactive), respectively.

Take `Cc1cn2c(=O)c3ncn(C4OC(CO)C(O)C4O)c3n(C)c2n1` (centres undefined): the GI50 in assay [1], in assay [2], in assay [3], in [4], in [5] and in [9] was > 100 µM (inactive) throughout. For the same molecule, the GI50 in [7] and in assay [8] was > 100 µM (inactive) each time.

For the molecule `O=C1c2ccccc2C(=O)c2sc(Nc3cccc(Cl)c3)nc21`, the GI50 in assay [2] was 0.322 µM (active); in assay [3] it was 7.45 µM (inactive); in [4] it was 1.63 µM (inactive); in assay [5], 1.87 µM (inactive); in [6], 1.73 µM (inactive); in assay [7], 1.94 µM (inactive). Further, the GI50 in [8] was 1.36 µM (inactive).

For `O=c1c2ccccc2c(=O)c2c1cc(Cl)c1[nH]c3c([nH]c12)c(Cl)cc1c(=O)c2ccccc2c(=O)c13`, the GI50 in assay [1], in [2], in assay [3], in [5], in assay [7] and in assay [8] was > 100 µM (inactive) each time.

Turning to `O/N=C1/C(=C/c2ccc3c(c2)OCO3)CCCC1C(NO)c1ccc2c(c1)OCO2` (centres undefined), the GI50 was 31.3 µM (inactive) in [1]; 24.8 µM (inactive) in [2]; 18.2 µM (inactive) in assay [3]; 18.2 µM (inactive) in assay [4]; 21.8 µM (inactive) in assay [5]; 22.7 µM (inactive) in [6]. The GI50 in assay [7] was 28.4 µM (inactive); in assay [8] it was 22.6 µM (inactive).

Consider `CCN(CC)CCNc1ccc2ncn3c4ccc(O)cc4c(=O)c1c23`, for which the GI50 was 0.541 µM (active) in [1]; 1.38 µM (inactive) in assay [2]; 1.23 µM (inactive) in assay [3]; 5.92 µM (inactive) in [4]; 0.0731 µM (active) in assay [5]; 0.173 µM (active) in assay [6]. For the same molecule, the GI50 in [7] is 0.544 µM (active).

With `Clc1cc(Cl)c2n[se]nc2c1`, the GI50 in [1], in assay [2], in assay [3], in [4], in assay [5] and in assay [9] was > 100 µM (inactive) each time.

Take `Cc1nc(-c2cccnc2)sc1C(=O)/C=C/c1ccc(Cl)cc1Cl`: the GI50 in [1], in assay [2], in [3], in [4], in assay [5] and in assay [7] was > 100 µM (inactive) throughout. The GI50 in assay [8] was 84.3 µM (inactive).

As to `CCN(CC)[C@@H]1c2cc3c(cc2C(c2cc(OC)c(O)c(OC)c2)C2C(=O)CO[C@@H]21)OCO3` (some centres undefined), the GI50 in [2], in assay [3], in assay [5], in assay [6], in assay [9] and in [7] was > 100 µM (inactive) each time. Also, in [8], the GI50 was > 100 µM (inactive).

As to `O=C(O)CN(c1ccccc1)S(=O)(=O)c1cccc([N+](=O)[O-])c1`, the GI50 in assay [2], in [3], in [4], in assay [5], in assay [6] and in assay [7] was > 100 µM (inactive) each time.

With `C=C1CC[C@@H]2C(C)(C)CCC[C@@]2(C)[C@@H]1Cc1cc(O)ccc1O`, the GI50 in [1] was 1.93 µM (inactive); in [2] it was 3.56 µM (inactive); in assay [3] it was 17.3 µM (inactive); in [4], 11.2 µM (inactive); in assay [5], 5.92 µM (inactive); in assay [7], 5.21 µM (inactive). Further, the GI50 in assay [8] was 1.89 µM (inactive).
